Reference: a melting point compilation (Tetko et al.; mined from patent text by program, amines drawn as free bases though some values may be those of a salt)

SMILES	melting point [°C]
O=Cc1ccc(-c2nc3ccccn3n2)cc1	246 to 247
CC1CC(=O)Oc2cc(O)ccc21 (stereo unspecified)	109 to 110
CNCCCOc1ccc(S(=O)(=O)c2[nH]c3ccccc3c2C(C)C)cc1	115
CC(C)(O)CC1CN=C(c2cc3cc(Oc4ccc(S(C)(=O)=O)cn4)cc(OC4CCOCC4)c3[nH]2)S1 (stereo unspecified)	129 to 130
CCCc1c(OCCOc2cccc(C(=O)OCC)c2)ccc(C(C)=O)c1O	58 to 60
Cc1nc2n(n1)C(N)(c1ccccc1)c1cc(Cl)ccc1-2 (stereo unspecified)	173 to 175
NC(=O)c1nnn(Cc2ccccc2Br)c1N	211 to 213
O=C(Nc1cccc2c(O)cccc12)c1ccc(F)c([N+](=O)[O-])c1	235 to 238
CCCCCCCCCCCCCCCCCCCCCC(=O)Nc1ccn(C2OC(CO)C(O)C2O)c(=O)n1 (stereo unspecified)	141 to 143
Cc1cc(Oc2ccccc2)ccc1[N+](=O)[O-]	43 to 46
O=C1O[C@@H](CNC(=S)C(F)F)CN1c1ccc(C2CCS(=O)CC2)c(F)c1 (stereo partly specified)	192 to 194
CCN1CCC2(CC1)COc1cc3c(cc12)N(C(=O)c1ccc(-c2ccc(C(=O)NN)cc2C)cc1)CC3	222 to 225
COc1ccc(-c2cccc(OCc3ccccc3)c2)cc1	78.5 to 81
CCCc1ccc(-c2ccc(=O)[nH]n2)cc1	180 to 182
Cc1ccn2c(C(=O)NCc3ccccc3)c(C)nc2c1	166 to 167
COC(=O)c1cc(OC(C)=O)c2cc(-c3ccc4c(c3)C(C)(C)CCC4(C)C)ccc2c1C	170
COC(=O)C=CN1c2ccccc2Sc2nccnc21	165 to 169
CC(=CN(C)C)C(=O)c1cccc(C(F)(F)F)c1	53 to 55
C#CCN1C(=O)C2CC2(c2ccc(N)cc2)C1=O (stereo unspecified)	106 to 109
CC(C)(C)OC(=O)c1cnc(F)cn1	26.5 to 28.1
O=C(O)CN1C(=O)COc2cc(F)ccc21	183 to 184
CCCCCC(=O)CCC1CCC(CCCCCCCC(=O)O)O1 (stereo unspecified)	26 to 28

SMILES	melting point [°C]
CN1CCCC1Cc1cn(Cc2ccccc2)c2ccc(C(C#N)S(=O)(=O)N(C)C(c3ccccc3)c3ccccc3)cc12 (stereo unspecified)	152 to 155
CC(=O)c1nc(-c2ccc(C)nc2Cl)[nH]c1C	156 to 158
COc1cc2c(cc1OC)C(Oc1ccccc1)CN(CCCOc1ccccc1)CC2 (stereo unspecified)	95 to 100
Cn1cc(CS(C)(=O)=O)c(=O)c2sccc21	220 to 223
COc1ccccc1C(=O)Nc1cc(C)ccc1C#N	147 to 149
O=[N+]([O-])c1cc(CS(=O)(=O)Cc2ccc(O)c([N+](=O)[O-])c2)ccc1O	166 to 168
O=c1c2c[nH]c3ccccc3c-2nn1-c1nccs1	> 350
COc1cc(OC)cc(C(=CC#N)c2ccc(OC)c([N+](=O)[O-])c2)c1	122 to 124
Cc1cc(CC(=O)NCc2cccc3c2C(=O)N(C2CCC(=O)NC2=O)C3=O)oc1C (stereo unspecified)	221 to 223
COC1=CC23CCN(C=O)C(Cc4cccc(OC)c42)C3CC1 (stereo unspecified)	169 to 172
Cc1cc(C)c2nc(C)n(Cc3ccc(NCC4CCN(C5CCN(C)CC5)CC4)cc3)c2n1	118 to 120
CCCc1ccc(C(=O)Nc2ccc3c(c2)CCCC3=O)cc1	168 to 170
CC(COc1c(-c2ccccc2)c(=O)[nH]c2cc(Cl)ccc12)=NO	196 to 198
O=C(O)c1sc(Cl)nc1C(F)(F)F	131 to 132
O=C1Nc2ccccc2N2CCN(CCCc3ccncc3)CC12 (stereo unspecified)	188 to 190
CCOC(=O)Cc1c(C)nc2c3cccc(Cl)c3ccn12	137 to 138
COc1cccc(C2=Nc3ccc(N4CCOCC4)cc3C(=O)C2)c1OC	235 to 236
CC1(C)NC(=O)N(c2ccc([N+](=O)[O-])c(C(F)(F)F)c2)C1=O	149
COc1ccccc1-n1nc(-c2c(-c3ccccc3)nn3ccccc23)ccc1=O	163
CN1CCN(c2cccc3c2C[C@H](NC(=O)c2ccccc2OS(C)(=O)=O)CC3)CC1	144 to 145
CCn1c(C)nc2c(C3=NC(C)(C(C)C)C(=O)N3)c(C(=O)OC)ccc21 (stereo unspecified)	189 to 191
CCOC(=O)C(CCO)=C(c1cccc(OC)c1)c1cccc(OC)c1	102 to 104

Continued, values first:

melting point [°C]	SMILES
155	COc1cc(Sc2cc(F)cc(C3(OC)CCOCC3)c2)ccc1/C(C)=N/O
188 to 192	Cc1ccc(NC(=O)c2ccc(CN3CCN(CCO)CC3)c(C(F)(F)F)c2)cc1Nc1nccc(-c2cncnc2)n1
98 to 103	CCOc1ccc2nc(NC(=O)CN3CCN(C(=O)CCCCCCC(=O)N(O)C(C)=O)CC3)sc2c1
280 to 282	COc1cc(OC)c2nc[nH]c(=O)c2c1
114 to 115	CS(=O)(=O)N(Cc1ccco1)CC(O)(Cn1cncn1)c1ccc(Cl)cc1Cl (stereo unspecified)
58 to 59	CCc1c(O)cccc1O
168 to 173	COC(=O)C1=CC=Nc2ccccc2C1
95 to 96.5	CC12CC3C(=O)OC(C1O)C3(C)O2 (stereo unspecified)
129 to 130	COCc1ccc(-c2ncccc2S(=O)(=O)Nc2ncc(C)nc2OC)cc1
73.5 to 75.5	COc1ccc(Oc2ccc(C(C)=C3SCCCS3)cc2)cc1OC
242 to 244	O=C(Nc1ccc2[nH]c(=O)oc2c1)C(=O)N1CCC(Oc2ccc(Cl)cc2)CC1
> 300	O=C(O)C1C=Nc2c(ccc3ncccc23)N1O (stereo unspecified)
160 to 162	C#CC1(COC(C)=O)OC(n2ccc(=O)[nH]c2=O)C(OC(C)=O)C1OC(C)=O (stereo unspecified)
74 to 75	CCOC(=O)c1cnc(NN)nc1-c1ccccc1
145 to 146	COC(=O)c1cccc2c1Oc1c(cccc1C(=O)OC)N2
133 to 134	CC1CCN(Cc2cccc(OCCCNc3nc(N)nn3C)c2)CC1
69 to 71.5	CCOC(=O)Cc1c(-c2ccc(C)cc2)nn2cccnc12
171 to 172	ClCCOc1ccc(C2=C(c3ccccc3)CCCc3ccccc32)cc1
171 to 173	Cc1ccccc1-c1cn(C)cc(-c2cccc(Cl)c2)c1=O
> 230	Cn1cc(NC(=O)c2cc(NC(=O)c3cc([N+](=O)[O-])cn3C)cn2C)cc1C(=O)NCCN1CCOCC1
176 to 181	O=C(CCc1ccncc1)Nc1cccc(-c2ccnc3c(C(=O)c4cccs4)cnn23)c1
109 to 110	COc1ccc(N2C(=O)C(O[Si](C(C)C)(C(C)C)C(C)C)C2c2ccco2)cc1 (stereo unspecified)
78 to 80	CCCC(C)COc1cc(CCl)c(OC)cc1CCl (stereo unspecified)
109 to 113	CN(C)c1ccc(NC(=O)N(Cc2ccccc2)C[C@@H]2CCCC[C@H]2CN(Cc2ccccc2)C(=O)Nc2ccc(N(C)C)cc2)cc1 (relative stereo)
130 to 131	C[Si](C)(C)OCc1cccc2c1c1c(c3ccccc32)-c2c(c3ccccc3c3ccccc23)C1
111 to 115	CC(C)Cn1c(=O)n(C)c(=O)c2c(Sc3cccs3)c(C(=O)c3cccnc3)sc21
300	O=C(O)COc1ccc2c(=O)c3c(F)cccc3oc2c1Cl
